Among the data in patent US10336707B2, “Heterocyclic derivatives modulating activity of certain protein kinases” (EUDENDRON S.R.L., priority 2014, dated 2019) are IC50 and inhibition values, retold here.

For one assay, the target named is T1, RET wild-type (Homo sapiens, UniProt P07949).
T1 construct: either as full-length or enzymatically active fragments; purchased ProQinase GmbH (Freiburg, Germany)
Kind of assay: Radiometric protein kinase assay (33PanQuinase Activity Assay), RET wild-type. It is filed as biochemical. The settings on record: ATP 1.0 μM. As to the method:
(§1) A proprietary radiometric protein kinase assay (33PanQuinase® Activity Assay) developed by ProQuinase GmbH (Freiburg, Germany) was used for measuring the kinase activity of selected protein kinases. All assays were performed in FlashPlates™ wells 96 Perkin Elmer (Boston, Mass., USA) in a reaction volume of 50 μl. The reaction mixture was obtained in 4 steps in the following order: • 1. 10 μl of a solution of non-radioactive ATP in water; • 2. 25 μl of assay buffer/[γ-^33P]-ATP mixture • 3. 5 μl of test sample in 10% DMSO • 4. 10 μl of enzyme/substrate mixture
(§2) All protein kinases provided by ProQinase were expressed in Sf9 insect cells or in E. coli as recombinant GST-fusion proteins or His-tagged proteins, either as full-length or enzymatically active fragments. […] Kinases from external vendors (CAR=Carna Biosciences Inc.; INV=Life Technologies (Invitrogen Corporation); MIL=Merck-Millipore (Millipore Corporation), were expressed, purified and quality-controlled by virtue of the vendors readings.
(§3) A stock solution of compound of formula (I) was diluted to 5×10-04M/100% DMSO. […] Incorporation of 33Pi (counting of “cpm”) was determined with a microplate scintillation counter (Microbeta, Wallac). […]
(§4) Based on each 10 corresponding residual activities, IC50 values were calculated using Prism 5.04 for Windows (Graphpad, San Diego, Calif.). […]

In assay [1] the test system is Karpas 299 lymphoma cell line positive for the oncogenic fusion protein NPM-ALK. Kind of assay: Tritiated thymidine uptake cell proliferation assay, Karpas 299. The conditions noted are these: Homo sapiens. It is filed as cell-based.
In another assay the target is T2, RET M918T (Homo sapiens, UniProt P07949, M918T).
T2 construct: either as full-length or enzymatically active fragments; purchased ProQinase GmbH (Freiburg, Germany)
T2 sequence (P07949 29-1114 M918T): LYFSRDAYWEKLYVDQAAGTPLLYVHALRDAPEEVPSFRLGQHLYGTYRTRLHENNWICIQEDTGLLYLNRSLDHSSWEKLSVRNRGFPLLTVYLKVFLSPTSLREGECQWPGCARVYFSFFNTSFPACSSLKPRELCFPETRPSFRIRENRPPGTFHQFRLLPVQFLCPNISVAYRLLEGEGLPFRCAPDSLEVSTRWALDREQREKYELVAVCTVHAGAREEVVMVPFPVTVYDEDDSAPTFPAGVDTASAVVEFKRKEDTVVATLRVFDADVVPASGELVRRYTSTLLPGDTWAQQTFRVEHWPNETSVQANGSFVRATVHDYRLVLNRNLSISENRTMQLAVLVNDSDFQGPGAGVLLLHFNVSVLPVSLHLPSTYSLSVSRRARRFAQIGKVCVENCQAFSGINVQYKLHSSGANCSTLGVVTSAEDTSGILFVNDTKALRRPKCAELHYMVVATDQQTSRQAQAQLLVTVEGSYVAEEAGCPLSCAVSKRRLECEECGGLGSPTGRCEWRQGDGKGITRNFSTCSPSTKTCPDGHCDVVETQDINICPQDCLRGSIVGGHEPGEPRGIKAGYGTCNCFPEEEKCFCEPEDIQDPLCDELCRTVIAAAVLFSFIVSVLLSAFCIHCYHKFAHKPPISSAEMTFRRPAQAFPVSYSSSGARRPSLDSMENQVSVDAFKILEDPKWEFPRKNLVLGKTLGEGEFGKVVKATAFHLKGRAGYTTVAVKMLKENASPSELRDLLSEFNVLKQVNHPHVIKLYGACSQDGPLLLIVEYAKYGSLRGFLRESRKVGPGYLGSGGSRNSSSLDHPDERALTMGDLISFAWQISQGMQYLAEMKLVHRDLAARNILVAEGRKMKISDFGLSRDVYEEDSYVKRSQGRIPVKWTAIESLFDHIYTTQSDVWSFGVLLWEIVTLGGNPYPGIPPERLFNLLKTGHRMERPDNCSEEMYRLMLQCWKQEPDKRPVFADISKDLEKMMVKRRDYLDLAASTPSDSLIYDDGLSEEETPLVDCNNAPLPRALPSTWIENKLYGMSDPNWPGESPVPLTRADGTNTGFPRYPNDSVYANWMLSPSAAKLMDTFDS
Put plainly: Radiometric protein kinase assay (33PanQuinase Activity Assay), RET M918T. It is filed as biochemical. The settings on record: ATP 0.3 μM. As to the method: as §1, §2, §3, §4

Assay [2] deals with NPM/ALK positive SUDHL-1 cells. Kind of assay: Tritiated thymidine uptake cell proliferation assay, SUDHL1. The conditions noted are these: Homo sapiens, SU-DHL-1; cell line SUDHL1; read-out: IC50 of cellular proliferation, SUDHL1. The class given is cell-based. How it is done: Method: Tritiated Thymidine Uptake Cell Proliferation Assay
The following procedure was used with parent untransformed BaF3 cells, BaF3 cells transformed with the oncogenic fusion protein NPM/ALK, NPM/ALK positive SUDHL-1 cells, NPM/ALK positive SUPM2, ALK-negative HL60 cells, NPM/ALK positive KARPAS-299 cells. The parent untransformed BaF3 cells or Alk-negative HL60 cells are used as controls. Cells were seeded in U-bottomed 96-well plates at 10000 cells/well in a volume of 100 μl in supplemented medium. In the case of the parent untransformed BaF3 cells, the medium was supplemented with IL-3. Serial dilutions of inhibitors were added to the appropriate wells and volumes adjusted to 200 μl. Controls were treated with the equivalent volume of vehicle, DMSO, alone. Plates were incubated at 37° C. for 72 h. 3[H]-thymidine (1 μCi/well) was added for the last 16 h of incubation. Cells were harvested on to paper filters and 3[H]-thymidine incorporation was measured using a scintillation counter (1430 MicroBeta, Wallac, Turku, Finland). The 50% inhibitory concentration (IC50) was defined as the concentration of inhibitor, expressed in nanomolar units, that gave a 50% decrease in 3[H]-thymidine uptake compared with controls.
In Table 4 are reported the IC50 of cellular proliferation assays of example 3 versus ALK positive, mutated and negative cell lines.

For assay [3], the target named is T3, ALK wild-type (GST-His-tag) (Homo sapiens, UniProt Q9UM73).
T3 construct: either as full-length or enzymatically active fragments; purchased ProQinase GmbH (Freiburg, Germany)
T3 sequence (Q9UM73 19-1620): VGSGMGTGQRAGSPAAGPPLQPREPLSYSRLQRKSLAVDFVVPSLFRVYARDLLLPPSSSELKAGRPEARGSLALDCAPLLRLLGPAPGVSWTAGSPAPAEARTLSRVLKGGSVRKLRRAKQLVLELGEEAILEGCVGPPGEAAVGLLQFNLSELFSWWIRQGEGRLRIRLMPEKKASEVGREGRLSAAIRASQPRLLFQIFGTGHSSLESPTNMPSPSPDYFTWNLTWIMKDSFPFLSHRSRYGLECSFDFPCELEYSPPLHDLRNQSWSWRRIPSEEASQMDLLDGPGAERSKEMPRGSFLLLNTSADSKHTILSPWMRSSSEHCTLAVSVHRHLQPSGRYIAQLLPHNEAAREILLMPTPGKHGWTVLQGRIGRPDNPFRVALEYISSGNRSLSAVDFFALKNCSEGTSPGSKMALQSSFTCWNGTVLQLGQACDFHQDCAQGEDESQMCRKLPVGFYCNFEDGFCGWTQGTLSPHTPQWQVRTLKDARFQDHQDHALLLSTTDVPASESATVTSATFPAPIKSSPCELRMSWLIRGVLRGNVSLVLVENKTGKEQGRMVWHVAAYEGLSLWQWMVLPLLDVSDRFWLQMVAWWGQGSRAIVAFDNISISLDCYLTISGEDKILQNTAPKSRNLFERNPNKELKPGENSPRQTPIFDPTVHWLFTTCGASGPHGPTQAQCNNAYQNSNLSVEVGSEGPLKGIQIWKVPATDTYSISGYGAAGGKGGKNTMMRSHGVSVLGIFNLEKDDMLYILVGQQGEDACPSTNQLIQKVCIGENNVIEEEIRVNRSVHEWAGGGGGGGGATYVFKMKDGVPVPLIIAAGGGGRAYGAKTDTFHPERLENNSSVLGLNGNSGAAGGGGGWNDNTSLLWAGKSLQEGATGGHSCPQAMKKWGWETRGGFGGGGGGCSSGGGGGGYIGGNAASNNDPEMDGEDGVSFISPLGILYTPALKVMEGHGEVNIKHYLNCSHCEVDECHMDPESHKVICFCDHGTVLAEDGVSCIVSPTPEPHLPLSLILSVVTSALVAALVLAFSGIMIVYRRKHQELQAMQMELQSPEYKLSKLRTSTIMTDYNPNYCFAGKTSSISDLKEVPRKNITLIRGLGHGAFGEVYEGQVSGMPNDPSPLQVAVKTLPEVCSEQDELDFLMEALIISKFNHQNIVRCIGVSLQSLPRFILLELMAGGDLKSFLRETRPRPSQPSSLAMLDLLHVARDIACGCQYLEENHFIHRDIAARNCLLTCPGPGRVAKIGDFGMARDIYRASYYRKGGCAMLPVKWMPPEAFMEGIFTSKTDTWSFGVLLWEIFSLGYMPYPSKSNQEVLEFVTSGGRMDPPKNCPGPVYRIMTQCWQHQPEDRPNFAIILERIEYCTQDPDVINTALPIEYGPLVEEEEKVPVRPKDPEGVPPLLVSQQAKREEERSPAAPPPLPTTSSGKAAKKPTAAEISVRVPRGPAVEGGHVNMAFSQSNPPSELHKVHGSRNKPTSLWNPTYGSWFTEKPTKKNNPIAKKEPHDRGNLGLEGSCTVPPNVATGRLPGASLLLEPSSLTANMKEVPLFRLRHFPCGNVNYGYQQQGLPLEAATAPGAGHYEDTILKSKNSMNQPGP
Put plainly: Radiometric protein kinase assay (33PanQuinase Activity Assay), ALK wild-type. It is filed as biochemical. The conditions noted are these: ATP 0.3 μM. As to the method: as §1, §2, §3, §4

For the next assay, the target named is T4, FYN (Homo sapiens, UniProt P06241).
T4 construct: either as full-length or enzymatically active fragments; purchased ProQinase GmbH (Freiburg, Germany)
T4 sequence (P06241 whole entry, the tested form may be a part): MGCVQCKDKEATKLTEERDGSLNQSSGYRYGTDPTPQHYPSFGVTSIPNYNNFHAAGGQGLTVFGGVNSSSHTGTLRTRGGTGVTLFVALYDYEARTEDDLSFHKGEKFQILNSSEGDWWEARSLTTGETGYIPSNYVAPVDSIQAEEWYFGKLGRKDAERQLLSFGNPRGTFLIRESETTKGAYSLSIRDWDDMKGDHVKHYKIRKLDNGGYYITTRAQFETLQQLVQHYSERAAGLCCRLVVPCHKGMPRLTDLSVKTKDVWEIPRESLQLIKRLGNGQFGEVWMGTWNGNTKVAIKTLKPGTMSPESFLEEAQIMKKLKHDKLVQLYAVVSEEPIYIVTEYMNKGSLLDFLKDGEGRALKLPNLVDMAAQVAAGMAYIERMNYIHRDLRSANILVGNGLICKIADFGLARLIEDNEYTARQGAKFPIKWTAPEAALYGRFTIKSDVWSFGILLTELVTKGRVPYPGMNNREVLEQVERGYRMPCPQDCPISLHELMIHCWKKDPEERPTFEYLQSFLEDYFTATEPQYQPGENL
Kind of assay: Radiometric protein kinase assay (33PanQuinase Activity Assay), FYN. It is filed as biochemical. The conditions noted are these: ATP 0.3 μM. How it is done: as §1, §2, §3, §4

T1 sequence (P07949 29-1114): as the sequence (P07949 29-1114 M918T) above, with T890M counted along it

As usually defined, the inhibition is the share of the control response that was lost under treatment. On to `CN1CCN(c2ccc(C(=O)Nc3n[nH]c4cc(-c5ccc(O)cc5)c(Cc5cc(F)cc(F)c5)cc34)c(NC3CCOCC3)c2)CC1` [Example 3, N-[5-[(3,5-difluorophenyl)methyl]-6-(4-hydroxyphenyl)-1H-indazol-3-yl]-4-(4-methylpiperazin-1-yl)-2-(tetrahydropyran-4-ylamino)benzamide], for which the IC50 on RET wild-type was 120 nM; in assay [1] (KARPAS-299, read-out: IC50 of cellular proliferation, Karpas299), 23 nM; against RET M918T it was 120 nM; in assay [2], 36 nM; in assay [3], 29 nM; against FYN, 34 nM. The inhibition at 0.2 µM in assay [1] (KARPAS-299, read-out: % Inhibition Karpas 299 cells) turned out to be 93%.
